Laboratory results reported in PMC8774489, “[(WR)8WKβA]-Doxorubicin Conjugate: A Delivery System to Overcome Multi-Drug Resistance against Doxorubicin” (Cells, 2022).
Where two headings read alike, the source gives them in different places. Peptide text beside a SMILES is read from it.

Key:
H9C2 cells = experiment: Confocal microscopy uptake in H9C2 heart cells; format: cell-based, rat; conditions: H9C2, 5 µM (mixture: Dox 5 µM with [WR]9 5 or 10 µM), 24 h
Experimental: (§1) MDA-MB-231, SK-OV-3, MES-SA/MX2, and H9C2 cells (7 × 10^4 cells/well) were seeded with a medium on a coverslip 24 h prior to the experiment in six well plates. After 24 h, the medium was changed with opti-MEM. The cells were treated with Dox and peptide-Dox conjugate (5 μM) in opti-MEM for 24 h. After 24 h incubation, the media were removed, and cells were washed three times with PBS in each well. Then, the cells were fixed with 3.7% formaldehyde for 10 min, followed by washing three times with PBS for 5 min (pH 7.6). DAPI (40 µL) for staining the nuclei was placed on a microscope slide, and it was covered with the coverslip with the cell-attached side facing down. The slides were left standing horizontally in a dark place with airflow to allow drying faster. The cells were photographed using Nikon Instruments A1 Confocal Laser Microscope Series (Nikon Instruments Inc, NY, USA) and NIS-Elements software (AR 4.30.02, 64 bit). The scan mode was selected as Galvano. The magnification and resolution were set at 40× and 1024, respectively.

[1] = test system: K562/ADR (human erythroleukemic cells); design: method as in PMID 11261883; conditions: resistant K562/ADR cells; cited from earlier work
Source text: Different linear CPPs such as penetratin [15], TAT [18], polyarginine, and maurocalcine have been conjugated with Dox.

MES-SA/MX2 cells [2] = experiment: In vitro cytotoxicity (MTS) assay in Dox-resistant MES-SA/MX2 cells; format: cell-based
Experimental: (§2) The incubation was continued for 3 h.

SK-OV-3 cells [3] = format: cell-based, human; conditions: 5 µM, 72 h, MTS, mean n = 3
Experimental: as §2

MDA-MB-231 cells [4] = format: cell-based, human; conditions: MTS; for MDA-MB-231 cell viability: 5 µM, mean n = 3
Experimental: as §2

MCF-7 cells = experiment: In vitro cytotoxicity (MTS) assay in MCF-7 cells; format: cell-based, human; conditions: for reduction of MCF-7 cell proliferation: mean n = 3
Experimental: as §2

H9C2 myocardium cells = conditions: 24 h, MTS, n = 3
Experimental: The cells were seeded in a complete growth medium 24 h prior to the experiment. […] The incubation was continued for 3 h.

CCRF-CEM cells = conditions: conjugate 5 μM for 4 h at 37 °C, then drug-free medium, HPLC AUC
Experimental: Intracellular hydrolysis of [(WR)8WKβA]-Dox and accumulation of free Dox and the peptide–Dox conjugate were determined in CCRF-CEM cells by HPLC analysis. Cells were grown with serum-free RPMI medium in 75 cm^2 culture flasks to ∼70–80% confluence (1.37 × 10^7 cells/mL). The medium was first replaced with fresh RPMI medium having [(WR)8WKβA]-Dox conjugate (5 μM). Then the cells were incubated for 4 h at 37 °C. After 4 h, the medium containing the conjugate was aspirated, and cells were washed three times with PBS before adding a fresh serum-free medium. The cells were first partitioned/transferred to culture plates (six wells) contained 1.37 × 10^7 cells per well in 5 mL of medium, then incubated for the indicated time. After incubation, the cells were collected using centrifugation. After centrifugation, the medium was removed by decantation. The cell pellets were washed with ice-cold PBS to remove any remaining medium. The cell pellets were then completely extracted with an equal volume of methanol, chloroform, and isopropanol mixture (4:3:1 v/v/v) and finally filtered through 0.2 μm filters. The relative amount of Dox and [(WR)8WKβA]-Dox concentrations in cell lysates were quantified by analytical HPLC using the water/acetonitrile solvent.

MES-SA/MX2 cells [5] = experiment: Confocal microscopy internalization in MES-SA/MX2 cells; format: cell-based; conditions: MES-SA/MX2, 5 μM, 24 h
Experimental: as §1

MDA-MB-231 cells [6] = experiment: Differential nuclear and cytoplasmic extraction of Dox, HPLC; format: cell-based, human; conditions: 50 μM, 4 h exposure, MDA-MB-231, nuclear extract, HPLC at 490 nm
Experimental: In order to confirm nuclear delivery of peptide-conjugated Dox, in addition to confocal microscopy, we performed a differential nuclear and cytoplasmic extraction. […] The cells were then pelleted at 2000 rpm for 5 min. After removing the supernatant, the cells were resuspended in Dounce buffer containing protease inhibitors. The cell suspension to be used was incubated on ice for 15 min before being spiked with cold 10% NP-40 and vortexed for 10 s. The suspension was centrifuged at 10,000 rpm for 10 min at 4 °C to pellet the nuclei. The supernatant was isolated for cytoplasmic extraction. The nuclear pellet was washed in cold PBS twice and centrifuged to remove the supernatant. The isolated nuclei were then lysed using RIPA buffer containing protease inhibitors. The nuclear and cytoplasmic extractions were analyzed by analytical HPLC to differentially quantify free Dox (or Dox released from the conjugates) and peptide-conjugate Dox using an Agilent Zorbax SB-C18 (4.6 × 150 mm) column. The column was equilibrated with 0.1% TFA-water (solvent A). The elution was performed at a flow rate of 1 mL/min using a gradient of acetonitrile from 0 to 35% in 50 min, with the absorbance measured at 490 nm.

SK-OV-3 cells [7] = experiment: Confocal microscopy uptake and retention in SK-OV-3 cells; format: cell-based, human; conditions: SK-OV-3, 5 μM, 3 h then 24 h in media
Experimental: as §1, with “The cells were treated with Dox and peptide-Dox conjugate (5 μM) in opti-MEM for 24 h.” left out

MES-SA/MX2 cells [8] = experiment: FACS cellular uptake with endocytosis inhibitors in MES-SA/MX2 cells; format: cell-based; conditions: MES-SA/MX2, conjugate 5 µM, 3 h, flow cytometry, n = 3
MDA-MB-231 cells [9] = experiment: FACS cellular uptake with endocytosis inhibitors in MDA-MB-231 cells; format: cell-based, human; conditions: MDA-MB-231, conjugate 5 µM, 3 h, flow cytometry, n = 3
Experimental: A flow cytometry study was conducted in the presence of endocytosis inhibitors such as nystatin, chlorpromazine, chloroquine, and methyl β-cyclodextrin to determine whether the cellular uptake for the peptide-Dox was endocytosis-dependent. MDA-MB-231 (5 × 10^5 cells/well) were seeded in the medium 24 h prior to the experiment in six well plates, and after 24 h the medium was changed with opti-MEM. […] The cells were then incubated with [(WR)8WKβA]-Dox conjugate (5 µM) in the presence of inhibitors for 3 h. After 3 h incubation, the media containing the compounds were removed. Next, the cells were digested with 0.05% trypsin/EDTA (0.53 mM) for 5 min to remove any artificial surface binding, centrifuged at 2500 RPM for 5 min with Fisher Scientific accuSpin Micro 17, and then collected as the precipitant. Then the cells were washed two times with PBS, resuspended in flow cytometry buffer, and transferred to the flow cytometry tubes through the 35 µm Strainer Mesh cap. Finally, the cells were analyzed by flow cytometry (FACSCalibur: Becton Dickinson, San Jose, CA, USA) using the Propidium Iodide channel and CellQuest software. The data presented were based on the mean fluorescence intensity for 10,000 cells collected. All assays were performed in triplicate.

in vitro = conditions: human, 25% human serum
Experimental: Human serum (250 μL) was diluted by adding sterile water (650 μL) and conjugate stock solution (100 μL) to give a sample with 25% human serum and 5 μM conjugate. The sample was kept at 37 °C in an incubator to mimic human body temperature. At regular time intervals, aliquots (100 μL) were taken and diluted with methanol (200 μL). After centrifugation (7000 RPM) of the mixture for 10 min, the supernatant was analyzed by analytical HPLC at 495 nm, and the major HPLC peaks were analyzed by mass spectrometry. The mobile phase used was acetonitrile/water with 0.1% TFA, with a gradient of 20–45% and a flow rate of 1 mL/min in 50 min. The percentage of intact conjugate and the release of the free drug were plotted against incubation time. The AUC obtained after each run was used to confirm the conjugate’s degradation, and t1/2 (the time needed to hydrolyze half of the initial conjugate in human serum) was calculated from the graph plotted as AUC versus incubation time.

[10] = molecular transporter of fluorescence-labeled phosphopeptide; cited from earlier work
Source text: Recently, we have reported amphiphilic cyclic CPPs composed of increasing numbers of W and R residues [WR]6–9, and compared their efficiency with the previously published cyclic [WR]5 in improving the cellular uptake of cell-impermeable compounds and their molecular transporter efficiency.

[11] = chlorpromazine 30 μM, methyl-β-cyclodextrin 2.5 mM

In the case of `COc1cccc2c1C(=O)c1c(O)c3c(c(O)c1C2=O)C[C@@](O)(C(=O)CO)C[C@@H]3O[C@H]1C[C@H](N)[C@H](O)[C@H](C)O1` [Dox, Doxorubicin], the “uptake in heart cells by confocal microscopy” value (H9C2 cells) is given as “high uptake”, the IC50 [1] is given as 65 ± 7 µM and the “inhibition of MES-SA/MX2 cell viability / proliferation” value (MES-SA/MX2 cells [2]; 5 μM, 72 h) is given as 15%. For the same compound, the “efficiency of free Dox against MES-SA/MX2” value (MES-SA/MX2 cells [2]; 1, 5, 10 or 20 µM) was “did not show significant efficiency”, the “reduction of SK-OV-3 cell viability” value (SK-OV-3 cells [3]) was 35% and the MDA-MB-231 cell viability (MDA-MB-231 cells [4]; 24 h) was 79%. For the same compound, the “inhibition of MDA-MB-231 cell viability / proliferation” value (MDA-MB-231 cells [4]; 5 μM, 72 h) was 63%, the MDA-MB-231 cell viability (MDA-MB-231 cells [4]; 72 h) was 37% and the “reduction of MCF-7 cell proliferation” value (MCF-7 cells; 5 µM, 24 h) was 21%. The “reduction of MCF-7 cell proliferation” value (MCF-7 cells; 5 µM, 72 h) was 57%.

For `COc1cccc2c1C(=O)c1c(O)c3c(c(O)c1C2=O)C[C@@](O)(C(=O)COC(=O)CCCC(=O)NCCC(=O)NCCCC[C@@H]1NC(=O)[C@H](Cc2c[nH]c4ccccc24)NC(=O)[C@H](CCCNC(=N)N)NC(=O)[C@H](Cc2c[nH]c4ccccc24)NC(=O)[C@H](CCCNC(=N)N)NC(=O)[C@H](Cc2c[nH]c4ccccc24)NC(=O)[C@H](CCCNC(=N)N)NC(=O)[C@H](Cc2c[nH]c4ccccc24)NC(=O)[C@H](CCCNC(=N)N)NC(=O)[C@H](Cc2c[nH]c4ccccc24)NC(=O)[C@H](CCCNC(=N)N)NC(=O)[C@H](Cc2c[nH]c4ccccc24)NC(=O)[C@H](CCCNC(=N)N)NC(=O)[C@H](Cc2c[nH]c4ccccc24)NC(=O)[C@H](CCCNC(=N)N)NC(=O)[C@H](Cc2c[nH]c4ccccc24)NC(=O)[C@H](CCCNC(=N)N)NC(=O)[C@H](Cc2c[nH]c4ccccc24)NC1=O)C[C@@H]3O[C@H]1C[C@H](N)[C@H](O)[C@H](C)O1` [[(WR)8WKβA]-Dox conjugate] (HELM PEPTIDE1{K.W.R.W.R.W.R.W.R.W.R.W.R.W.R.W.R.W}|PEPTIDE2{[COc1cccc2c1C(=O)c1c(O)c3c(c(O)c1C2=O)C[C@@](O)(C(=O)COC(=O)CCCC(=O)[*:2])C[C@@H]3O[C@H]1C[C@H](N)[C@H](O)[C@H](C)O1].[bAla]}$PEPTIDE1,PEPTIDE2,1:R3-2:R2|PEPTIDE1,PEPTIDE1,1:R1-18:R2$$$V2.0), the “cytotoxicity in rat H9C2 myocardium cells” value (H9C2 myocardium cells; 10 µM) was “comparable to Dox”, the “cytotoxicity in rat H9C2 myocardium cells” value (H9C2 myocardium cells; 1 and 5 µM) was “no significant cytotoxicity” and the “uptake in heart cells by confocal microscopy” value (H9C2 cells) was “did not show any significant uptake”. For the same compound, the “free Dox released intracellularly” value (CCRF-CEM cells; within 12 h) was “More than 36%”, the “free Dox released intracellularly” value (CCRF-CEM cells; within 72 h) was “approximately 100%” and the “internalization into resistant cells overexpressing P-gp” value (MES-SA/MX2 cells [5]) was “internalized”. For the same compound, the “total concentration of Dox (conjugated and released) in the nucleus” value (MDA-MB-231 cells [6]) was “higher than free Dox”, the “cellular uptake, retention and localization of Dox” value (SK-OV-3 cells [7]) was “increased the cellular uptake and retention of Dox” and the “uptake reduction in presence of chlorpromazine and methyl-β-cyclodextrin” value (MES-SA/MX2 cells [8]; [11]) was “statistically significant”. The “cellular uptake in presence of nystatin and chloroquine” value (MES-SA/MX2 cells [8]; nystatin 50 μg/mL, chloroquine 100 μM) was “not reduced significantly”, the “cellular uptake in presence of chlorpromazine and methyl-β-cyclodextrin” value (MDA-MB-231 cells [9]; [11]) was “slight uptake reduction” and the “cellular uptake in presence of nystatin and chloroquine” value (MDA-MB-231 cells [9]; nystatin 50 μg/mL, chloroquine 100 μM, 30 min preincubation) was “not reduced significantly”. The metabolised at 1 h, 5 µM (in vitro) was 7%, the metabolised at 6 h, 5 µM (in vitro) was about 50% and the metabolised at 12 h, 5 µM (in vitro) was over 80%. For the same compound, the remaining at 24 h, 5 µM (in vitro) was 6%, the “reduction of MCF-7 cell proliferation” value (MCF-7 cells; 1 µM, 24 h) was 28% and the “reduction of MCF-7 cell proliferation” value (MCF-7 cells; 1 µM, 72 h) was 70%. The “reduction of MCF-7 cell proliferation” value (MCF-7 cells; 5 µM, 24 h) was 55%, the “reduction of MCF-7 cell proliferation” value (MCF-7 cells; 10 µM, 24 h) was 56% and the “reduction of MCF-7 cell proliferation” value (MCF-7 cells; 10 µM, 72 h) was 77%.

For `N=C(N)NCCC[C@@H]1NC(=O)[C@H](Cc2c[nH]c3ccccc23)NC(=O)[C@H](CCCNC(=N)N)NC(=O)[C@H](Cc2c[nH]c3ccccc23)NC(=O)[C@H](CCCNC(=N)N)NC(=O)[C@H](Cc2c[nH]c3ccccc23)NC(=O)[C@H](CCCNC(=N)N)NC(=O)[C@H](Cc2c[nH]c3ccccc23)NC(=O)[C@H](CCCNC(=N)N)NC(=O)[C@H](Cc2c[nH]c3ccccc23)NC(=O)[C@H](CCCNC(=N)N)NC(=O)[C@H](Cc2c[nH]c3ccccc23)NC(=O)[C@H](CCCNC(=N)N)NC(=O)[C@H](Cc2c[nH]c3ccccc23)NC(=O)[C@H](CCCNC(=N)N)NC(=O)[C@H](Cc2c[nH]c3ccccc23)NC(=O)[C@H](CCCNC(=N)N)NC(=O)[C@H](Cc2c[nH]c3ccccc23)NC1=O` [[WR]9] (HELM PEPTIDE1{R.W.R.W.R.W.R.W.R.W.R.W.R.W.R.W.R.W}$PEPTIDE1,PEPTIDE1,1:R1-18:R2$$$V2.0), the “antiproliferative effect of [WR]9 alone on MES-SA/MX2” value (MES-SA/MX2 cells [2]; 24 and 72 h) is given as “no significant antiproliferative effect”, the “enhancement of cellular uptake of F′-GpYEEI” value [10] is given as 20 fold and the “effect of [WR]9 alone on MCF-7 cell survival” value (MCF-7 cells; different concentrations (1, 5, 10 μM)) is given as “no significant effect on cell survival”.
